Data taken from patent US6972287B1, “Method of inhibiting amyloid protein aggregation and imaging amyloid deposits” (Pfizer Inc., priority 1999, dated 2005).
“And” between values parts separate entries of the source, which are not always exact repeats. Equal entries are not always repeated. Structures can show the parent of a compound that is named as a salt.

Columns and labels:
Type in all cases: biochemical
Aβ(1-40) [1] = target: T1, Aβ(1-40) (Homo sapiens, UniProt P05067); experiment: BASSR (Beta-Amyloid Self-Seeding Radioassay), inhibitors of self-seeded amyloid fibril growth
T1 construct: […]; purchased Bachem, Torrance, Calif
T1 sequence (P05067 672-711 limits assumed): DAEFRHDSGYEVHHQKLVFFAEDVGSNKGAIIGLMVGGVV
Protocol: BASSR (Beta-Amyloid Self-Seeding Radioassay)
(§1) An assay for inhibitors of self-seeded amyloid fibril growth
Assay Buffer—50 mM sodium phosphate, pH 7.5, 100 mM NaCl, 0.02% NaN3, 1 M urea (filter and store at 4° C.).
(§2) Typically, the solution should be stored until no lag phase is seen in the assay.
^125I-labeled Aβ(1-40)—150K-350K cpm/μL in 100% acetonitrile—0.1% trifluoroacetic acid (TFA)—1% β-mercaptoethanol (aliquots stored at −20° C.). ^125I-labeled Aβ(1-40) can be made in accordance with the procedure set forth by H. LeVine, III in Neurobiol. Aging, 16, 755, (1995), which is hereby incorporated by reference, or this reagent may be purchased from Amersham, Arlington Heights, Ill.
The following are the amounts of the components of the reaction mixture sufficient for 50 assay wells:
• 1) Prepare reaction mixture above by mixing components and storing on ice. • 2) Pipet 14.5 μL of reaction mixture into each of 50 wells on a polypropylene U-bottom 96-well microtiter plate on ice. (Costar 3794). • 3) Add 1.7 μL of diluted compound to be tested to each well in a column of eight, including solvent control. Serial 3-fold dilutions from 1 mM (100 μM final) in assay buffer−urea=7 dilutions+zero. Each 96-well plate can therefore accommodate 11 samples+1 Congo Red control (0.039-5 μM final in 2-fold steps). • 4) Seal the plate with aluminum film (Beckman 538619) and incubate for 10 minutes on ice. • 5) Raise the temperature to 37° C. and incubate for 3 to 5 hours (depending on the lot of the peptide). • 6) Remove the aluminum film and add 200 μL/well of ice cold assay buffer with urea, collecting the radiolabeled fibrils by vacuum filtration through 0.2 μm pore size GVWP filters in 96-well plates (Millipore MAGV N22, Bedford, Mass.). Determine the radioactivity of the filters using standard methods well-known to those skilled in the art. BASST (Beta-Amyloid Self-Seeding, Thioflavin T)

Aβ(1-40) [2] = target: T1, Aβ(1-40); experiment: BASST (Beta-Amyloid Self-Seeding, Thioflavin T), inhibitors of self-seeded amyloid fibril growth; settings: read-out: BASST (IC50 = μM)
Protocol: as §1
Assay Buffer—50 mM sodium phosphate, pH 7.5, 100 mM NaCl, 0.02% NaN3, 1 M urea (filter and store at 4° C.)
as §2
The following are the amounts of the components of the reaction mixture that result in each of the 50 assay wells:
• 1) Prepare the reaction mix above by mixing the components and storing on ice. • 2) Pipet 14.5 μL of reaction mixture into each of 50 wells of a polystyrene U-bottom 96-well microtiter plate (Corning 25881-96) on ice. • 3) Add 1.7 μL of diluted compound to be tested to each well in a column of eight, including solvent control. Serial 3-fold dilutions from 1 mM (100 μM final) in assay buffer−urea=7 dilutions+zero. Each 96-well plate can therefore accommodate 11 samples+1 Congo Red control (0.039-5 μM final in 2-fold steps). • 4) Seal the plate with aluminum film and incubate for 10 minutes on ice. • 5) Raise the temperature to 37° C. and incubate for 3 to 5 hours (depends on the lot of the peptide). • 6) Remove the aluminum film and add 250 μL/well of 5 μM thioflavin T (ThT) [T-3516, Sigma-Aldrich] in 50 mM glycine-NaOH, pH 8.5. Read fluorescence on a plate reader (ex=440 nm/20 nm; em=485 nm/20 nm) within 5 minutes. BAPA (Beta-Amyloid Peptide Aggregation)

Aβ (1-40) peptide = target: T2, Aβ (1-40) peptide (Homo sapiens, UniProt P05067); experiment: BAPA (Beta-Amyloid Peptide Aggregation, pH 6.0, filtration); settings: Aβ (1-40) 33 μM, pH 6.0, 2 to 4 hours at room temperature; replicate values; letter = synthetic lot
T2 construct: 10 μL 0.5 mg/mL Aβ (1-40) peptide in 20% HFIP
T2 sequence (P05067 672-711 limits assumed): as above
Protocol: Each 96-well plate can therefore accommodate 11 samples+1 Congo Red control (0.039-5 μM final in 2-fold steps). • 4) Seal the plate with aluminum film and incubate for 10 minutes on ice. • 5) Raise the temperature to 37° C. and incubate for 3 to 5 hours (depends on the lot of the peptide). • 6) Remove the aluminum film and add 250 μL/well of 5 μM thioflavin T (ThT) [T-3516, Sigma-Aldrich] in 50 mM glycine-NaOH, pH 8.5. […] The purpose of this assays is to provide a higher volume method of assaying the amount of beta amyloid aggregation using an endpoint assay based on filtration. In this assay, hexafluoroisopropanol (HFIP) is used to break down the initial amyloid peptide to a monomer state and use a concentration of 33 μM which is high enough so that aggregation will occur at pH 6.0 in several hours. Methods: […] Then, we incubate for 2 to 4 hours at room temperature. […] We wash the filter plate with 100 μL of the same phosphate buffer. Aggregation was detected on a Microbeta counter after impregnating the filters with Meltilex (1450-441) and is corrected for background.

Aβ (1-42) = target: T3, Aβ (1-42) (Homo sapiens, UniProt P05067); experiment: BATYM assay (Aβ (1-42) aggregation, Thioflavin T fluorescence); settings: Aβ 1-42 final concentration 100 μM, 37° C., 1 day, letter = synthetic lot
T3 construct: Required Aβ (1-42) (California Peptide) was dried from its hexafluoroisopropanol (HFIP) stock solution; purchased California Peptide
T3 sequence (P05067 672-713 limits assumed): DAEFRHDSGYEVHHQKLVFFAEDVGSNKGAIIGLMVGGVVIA
Protocol: Required Aβ (1-42) (California Peptide) was dried from its hexafluoroisopropanol (HFIP) stock solution. The Aβ (1-42) was dissolved in dimethylsulfoxide (DMSO) and then mixed with phosphate buffered saline (PBS) (pH 7.4). The mixed Aβ (1-42) solution was filtered with a 0.2 μm Omnipore membrane syringe filter Millipore, Bedford, Mass.). The compound to be tested in DMSO (50 times concentrate) was put into each well (0.5 μL/well) of a 96-well plate. The Aβ (1-42) solution was added into each well (24.5 μL/well). The plate was centrifuged at 1,000 g for 5 minutes and incubated at 37° C. for 1 day (Aβ 1-42; final concentration 100 μM).
After incubation Thioflavin T (ThT) (30 μM) solution in glycine-NaOH buffer (pH 8.5, 50 mM) was added into each well (250 μL/well), fluorescence was measured (ex=440/20 nm, em=485/20 nm) using a fluorescence plate reader. The inhibitory activity was calculated as the reduction of fluorescence with the following formula: Inhibition (%)={(F(Aβ)−F(Aβ+compound)}/{F(Aβ)−[…]}×100
The IC50s were calculated by a curve fitting program using the following equation. The data were obtained from two different experiments in triplicate.
x=Concentration of tested compound (M),

[3] = 30 μM soluble Aβ(1-40) + 125I-labeled Aβ(1-40), 37° C., 3 to 5 hours, replicate values, letter = synthetic lot, ppt = precipitate, V-shaped = inhibition followed by precipitation
[4] = 30 μM soluble Aβ(1-40), 37° C., 3 to 5 hours, thioflavin T fluorescence, replicate values, letter = synthetic lot

| Compound | IC50 (Aβ (1-40) peptide) | IC50 (Aβ(1-40) [1]; [3]) | IC50 (Aβ (1-42)) | IC50 (Aβ(1-40) [2]; [4]) [µM] | IC50 (Aβ(1-40) [1]) [µM] | IC50 (Aβ(1-40) [2]) |
| --- | --- | --- | --- | --- | --- | --- |
| 2-{4-[2-(3,4-Dichloro-phenyl)-ethyl]-phenylamino}-benzoate-2-hydroxy-1,1-bis hydroxymethyl-ethyl-ammonium [Example 120] | > 60 µM | – | – | – | > 100 | 3 µM |
| O=C(O)c1ccccc1Nc1ccc(CCc2ccc(Cl)c(Cl)c2)cc1 [Example 1, 2-{4-[2-(3,4-Dichlorophenyl)ethyl]phenylamino}-benzoic acid] | > 60 µM and 11 µM and > 100 µM and 86 µM | > 100 µM (5×) and 52 µM and 10 µM | > 60 µM and 50 µM and 58.8 µM and 57.8 µM | – | – | – |
| O=C(O)c1cc([N+](=O)[O-])c(-n2ccnc2)cc1Nc1ccc(CCCc2ccc(Cl)c(Cl)c2)cc1 [Example 8] | – | 15 µM (3×) and 18 µM | 7.17 µM | – | – | – |
| Cc1ccc(CCc2ccc(Nc3ccc([N+](=O)[O-])cc3C(=O)O)cc2)cc1C [Example 61, 2-{4-[2-(3,4-Dimethyl-phenyl)-ethyl]-phenylamino}-5-nitro-benzoic acid] | 13 µM | – | 12 µM | – | – | – |
| O=C(O)c1ccccc1Nc1ccc(CCc2ccc(Cl)c(Cl)c2)cc1 [Example 118, 2-{4-[2-(3,4-Dichloro-phenyl)-ethyl]-phenylamino}-benzoic acid monopotassium] | > 60 µM | > 100 µM | – | 6 | – | – |
| O=C(O)c1ccccc1Nc1ccc(CCc2ccc(Cl)c(Cl)c2)cc1 [Example 119, 2-{4-[2-(3,4-Dichloro-phenyl)-ethyl]-phenylamino}-benzoic acid calcium salt (1:1)] | > 60 µM | > 100 µM | – | – | – | 3 µM |
| O=C(O)c1cc(C(F)(F)F)ccc1Nc1ccc(CCc2ccc(Cl)c(Cl)c2)cc1 [Example 143, 2-{4-[2-(3,4-Dichlorophenyl)-ethyl]-phenylamino}-5-trifuoromethyl-benzoic acid] | – | – | > 100 µM | – | > 100 | 40 µM and 30 µM |
| CN(c1ccc(CCc2ccc(Cl)c(Cl)c2)cc1)c1ccccc1C(=O)O [Example 148, 2-({4-[2-(3,4-Dichloro-phenyl)-ethyl]-phenyl}-methyl-amino)-benzoic acid] | – | > 100 µM | > 100 µM | – | – | – |
| CCCN(CCC)c1ccc(CCCc2cccc(Nc3ccccc3C(=O)O)c2)cc1 [Example 157, 2-{3-[3-(4-Di-n-propylaminophenyl)propyl]phenylamino}-benzoic acid] | – | – | 25.9 µM | – | – | – |

The next lines start with results.

| IC50 (Aβ (1-40) peptide) | IC50 (Aβ(1-40) [1]; [3]) | IC50 (Aβ (1-42)) | IC50 (Aβ(1-40) [2]; [4]) [µM] | Compound | IC50 (Aβ(1-40) [1]) [µM] | IC50 (Aβ(1-40) [2]) |
| --- | --- | --- | --- | --- | --- | --- |
| > 60 µM and 43 µM | – | 31 µM and 34 µM | – | CCN(CC)c1ccc(CCCc2ccc(Nc3ccccc3C(=O)O)cc2)cc1 [Example 19, 2-{4-[3-(4-Diethylaminophenyl)propyl]phenylamino}benzoic acid] | – | – |
| – | > 100 µM | 38.2 µM | 2 | O=C(O)c1ccccc1Nc1ccc(CCCc2ccc(N3CCCCC3)cc2)cc1 [Example 47, 2-{4-[3-(4-Piperidin-1-ylphenyl)propyl]phenylamino}benzoic acid] | – | – |
| – | 85 µM | 39.1 µM | 0.8 | CCCNc1ccc(CCCc2ccc(Nc3ccccc3C(=O)O)cc2)cc1 [Example 51, 2-{4-[3-(4-Propylaminophenyl)propyl]phenylamino}benzoic acid] | – | – |
| – | 75 µM | 36.5 µM | 0.5 | CCCNc1cccc(CCCc2ccc(Nc3ccccc3C(=O)O)cc2)c1 [Example 52, 2-{4-[3-(3-Propylaminophenyl)propyl]phenylamino}benzoic acid] | – | – |
| 9 µM and 47 µM and 29 µM | > 100 µM | – | > 100 | Cc1cc(-c2cc(Cl)cc(Cl)c2)ccc1Nc1ccccc1C(=O)O [Example 83, 2-(3′,5′-Dichloro-3-methyl-biphenyl-4-ylamino)-benzoic acid] | – | – |
| 5 µM and 21 µM | > 100 µM | – | > 100 | Cc1cc(-c2cc(Br)cc(Br)c2)ccc1Nc1ccccc1C(=O)O [Example 84, 2-(3′,5′-Dibromo-3-methyl-biphenyl-4-ylamino)-benzoic acid] | – | – |
| 8 µM and 77 µM and 45 µM | > 100 µM | – | 18 | Cc1cc(-c2ccc3c(c2)OCO3)ccc1Nc1ccccc1C(=O)O [Example 85, 2-(4-1,3-Benzodioxol-5-yl-2-methyl-phenylamino)-benzoic acid] | – | – |
| > 10 µM and 89 µM and 37 µM | 40 µM | – | 18 | O=C(O)c1ccccc1Nc1ccc(-c2ccc(Cl)cc2Cl)c(Cl)c1 [Example 86, 2-(2,2′,4′-Trichloro-biphenyl-4-ylamino)-benzoic acid] | – | – |
| > 10 µM and 15 µM and 32 µM | > 100 µM | – | 50 | O=C(O)c1ccccc1Nc1ccc(-c2ccc(F)c(F)c2)c(Cl)c1 [Example 87, 2-(2-Chloro-3′,4′-difluoro-biphenyl-4-ylamino)-benzoic acid] | – | – |
| > 10 µM and 37 µM and 27 µM | > 100 µM | – | 10 | O=C(O)c1ccccc1Nc1ccc(-c2cccc(Br)c2)c(Cl)c1 [Example 88, 2-(3′-Bromo-2-chloro-biphenyl-4-ylamino)-benzoic acid] | – | – |
| – | > 100 µM | 70.8 µM | – | O=C(O)c1ccccc1Nc1cccc(CCc2ccc(Cl)cc2)c1 [Example 154, 2-{3-[2-(4-Chlorophenyl)ethyl]phenylamino}-benzoic acid] | – | – |
| – | > 100 µM | 44.6 µM | 3 | O=C(O)c1ccccc1Nc1cccc(CCCc2ccc(Cl)c(Cl)c2)c1 [Example 155, 2-{3-[3-(3,4-Dichlorophenyl)propyl]phenylamino}-benzoic acid] | – | – |
| – | – | 27.8 µM | – | CCN(CC)c1ccc(CCCc2cccc(Nc3ccccc3C(=O)O)c2)cc1 [Example 156, 2-{3-[3-(4-Diethylaminophenyl)propyl]phenylamino}-benzoic acid] | – | – |
